In PMC9820430, “New Affordable Methods for Large-Scale Isolation of Major Olive Secoiridoids and Systematic Comparative Study of Their Antiproliferative/Cytotoxic Effect on Multiple Cancer Cell Lines of Different Cancer Origins” (International Journal of Molecular Sciences, 2022):

Legend:
[1] = system: sixteen human cancer cell lines originating from eight different tissues; assay: ATP-based luminescence cell viability assay, whole panel
Description: (§1) The antiproliferative/cytotoxic effects of the selected OOPs on each cell line were assessed by measuring the cellular ATP levels after 72 h treatments using an ATP-based luminescence assay. This assay, initially developed as a tumor chemosensitivity assay, has shown considerable promise as a general in vitro toxicity assay due to its high sensitivity that allows the detection of a small number of cells. Consequently, it can be applied to both cancer cell lines and primary tissue cells. […] The EC50 values were calculated by nonlinear regression (curve fit) using a sigmoidal dose–response equation (Figure 2A and Figure S2).
(§2) The OOPs tested in this study were first dissolved in an appropriate DMSO volume such as to prepare a final stock solution of 50 mM, which was further used to prepare various compound concentrations in DMSO-based solutions. The final DMSO concentration in the cell culture was maintained constant in all treated groups of any given experiment and never exceeded the value of 0.2% (v/v). For the treatment experiments, cells were plated in 96-well culture plates, in 100 μL of complete medium at a seeding density of 5000–10,000 cells/well—depending on cells’ size and doubling time—and were allowed to adhere overnight (~16 h). The next day, 150 μL of complete medium was added to each well and the cells were treated with various concentrations of OOPs. Each concentration was tested in triplicate and was repeated 2–3 times. To prepare the final concentration solutions, 0.5 μL of a 500× stock of each tested compound in DMSO was added directly into each well in a final volume of 250 μL culture medium and was gently mixed by pipetting. Control wells were prepared under the same experimental conditions by adding only DMSO at a final concentration of 0.2% (v/v). Compounds were not renewed during the entire period of cell exposure. All cells were cultured at 37 °C in a 5% (v/v) CO2 for 24, 48 or 72 h.
(§3) Briefly, after the treatment with OOPs, the adapted medium was removed from the dish wells and the cells were washed twice with medium without FBS. Then, the C-lysis (LT27-076) was diluted in PBS (1:2) and a volume of 50 μL was added to each well. Cells were incubated with C-lysis for at least 10 min. Finally, an equal volume of lysed cells from each well and ATP monitoring reagent (AMR; LT27-212) was transferred to the wells of a white-walled illuminometer plate (Greiner bio-one; 655074). Cell viability was quantified by measuring luminescence using a multi-mode microplate reader Safire^2 Tecan (software Magellan V6.00 STD.2PC WIN.20000/XP).

[2] = system: three breast cancer cell lines (MDA-MB-231, SK-BR-3 and MCF-7); assay: ATP-based luminescence cell viability assay, breast panel; design: species or system human
Description: as §1
The calculated EC50 values ranged between 9.1–100 μΜ (Table 1). The bioactivity of the oleocanthalic acid (7), studied here for the first time for its antiproliferative/cytotoxic activity, was initially evaluated systematically in the three breast cancer cell lines using a concentration range of 10–100 μM. In all cases, the viability measured was ≥80%, predicting EC50 values > 100 μΜ. […] For this reason, oleocanthalic acid (7) was excluded from the rest of this study.
as §2
Briefly, after the treatment with OOPs, the adapted medium was removed from the dish wells and the cells were washed twice with medium without FBS. Then, the C-lysis (LT27-076) was diluted in PBS (1:2) and a volume of 50 μL was added to each well. […] Cell viability was quantified by measuring luminescence using a multi-mode microplate reader Safire^2 Tecan (software Magellan V6.00 STD.2PC WIN.20000/XP).

[3] = system: MDA-MB 231; assay: ATP-based luminescence cell viability assay (ViaLight), 72 h; design: species or system human; conditions: Homo sapiens, MDA-MB-231, 72 h, MDA-MB 231; 72 h treatment; read-out: EC50 Values of Olive Oil Polyphenols
Description: as §1, §2, §3

[4] = system: MCF-7; assay: as above; design: species or system human; conditions: Homo sapiens, MCF7, 72 h, 72 h treatment, read-out: EC50 Values of Olive Oil Polyphenols
Description: as §1, §2, §3

[5] = system: SK-BR-3; assay: as above; design: species or system human; conditions: Homo sapiens, SK-BR-3, 72 h, SK-BR-3; 72 h treatment; read-out: EC50 Values of Olive Oil Polyphenols
Description: as §1, §2, §3

## C/C=C(/C=O)[C@@H](CC(=O)O)CC(=O)OCCc1ccc(O)cc1 [compound 7, oleocanthalic acid]
[1]; Figure 3, sixteen cancer cell lines
  Bioactivity range on cancer cell lines (grade in words): Low activity
[1]; Homo sapiens, 72 h treatment, range across cancer cell lines, read-out: EC50, range over the cancer cell lines
  EC50: > 100 µM
[2]; Homo sapiens, MDA-MB-231, SK-BR-3 and MCF-7, 72 h
  EC50: > 100 µM
[2]; three breast cancer cell lines, concentration range of 10–100 μM
  viability measured: ≥ 80%
[3]
  EC50: > 100 µM
[4]
  EC50: > 100 µM
[5]
  EC50: > 100 µM
